Experimental data as given in the Kinase Knowledgebase extract (Sharma et al. 2016).

Target: CDK2 (UniProt P24941)
Experiment: Enzyme Assay

Row | Ki | Compound
1 | 100 to 1000 nM | Cc1cnc(Nc2ccccc2)nc1-c1c[nH]c(C(=O)NC(CO)c2cccc(C(F)(F)F)c2)c1 (configuration not stated)
2 | 1000 to 20000 nM | Cc1cnc(NCC2CC2)nc1-c1c[nH]c(C(=O)N[C@H](CO)c2ccccc2)c1
3 | < 100 nM | Cc1cnc(N[C@H]2CC[C@H](O)CC2)nc1-c1c[nH]c(C(=O)N[C@H](CO)c2ccccc2)c1
4 | 100 to 1000 nM | Cc1cnc(N[C@@H](CO)c2ccccc2)nc1-c1c[nH]c(C(=O)N[C@H](CO)c2ccccc2)c1
5 | 1000 to 20000 nM | COc1ccccc1Nc1ncc(C)c(-c2c[nH]c(C(=O)N[C@H](CO)c3ccccc3)c2)n1

Continued, compound first:

Row | Compound | Ki
6 | Cc1cnc(NC2CC2)nc1-c1c[nH]c(C(=O)N[C@H](CO)c2ccccc2)c1 | 100 to 1000 nM
7 | Cc1cnc(Nc2cccc(F)c2)nc1-c1c[nH]c(C(=O)NC(CO)c2cccc(C(F)(F)F)c2)c1 (configuration not stated) | 100 to 1000 nM
8 | Cc1cnc(NC2(CO)CC2)nc1-c1c[nH]c(C(=O)N[C@H](CO)c2ccccc2)c1 | 100 to 1000 nM
9 | CCNc1ncc(C)c(-c2c[nH]c(C(=O)N[C@H](CO)c3ccccc3)c2)n1 | 1000 to 20000 nM
10 | Cc1cnc(Nc2cccc(C(F)(F)F)c2)nc1-c1c[nH]c(C(=O)N[C@H](CO)c2ccccc2)c1 | < 100 nM
11 | Cc1cnc(NCc2ccccc2)nc1-c1c[nH]c(C(=O)N[C@H](CO)c2ccccc2)c1 | 100 to 1000 nM
12 | Cc1cnc(Nc2ccc(OCc3ccccc3)cc2)nc1-c1c[nH]c(C(=O)N[C@H](CO)c2ccccc2)c1 | < 100 nM
